# Test results: patent US9920383B2, “Active substances for increasing the stress defense in plants to abiotic stress, and methods of finding them” (Bayer Intellectual Property GMBH, priority 2005, dated 2018)
# Columns and labels:
# Assay type in all cases: in vivo, maize cv. Lorenzo
# [1] = system: Zm.18273.1.S1_at regulatory protein-like; experiment: Gene expression profiling (maize genome array), drought stress; details: vs unstressed solvent-dressed control
# Procedure: (§1) Maize seeds cv. Lorenzo were dressed as described in example 1 with the compound VIII-3 (=4-cyclopropylaminocarbonyl-N-(2-methoxybenzoyl)benzenesulfonamide) or with solvent. The plants were raised for 10 days in a controlled-environment chamber (conditions: see example 1).
# (§2) Thereafter, the plants were exposed to the following stress conditions: • (1) Heat stress: 6 h at 45° C. • (2) Drought stress: 7 days without irrigation, 24° C.
# (§3) The control plants of the specific experimental group were kept under the standard conditions described in example 1 (temperature, irrigation).
# (§4) After the stress treatment, the leaves of the stressed plants and of the unstressed control plants were harvested, shock-frozen in liquid nitrogen and stored at −80° C. until processed. All experiments were carried out in replications of in each case 2 pots.
# (§5) The labeled RNA probes for the DNA chip hybridization were prepared as described in the protocols (Expression Analysis. Technical Manual) from Affymetrix (Affymetrix Inc., 3380 Central Expressway, Santa Clara, Calif., USA). First, total RNA was isolated from in each case 500 mg of the harvested leaves. In each case 10 μg of total RNA were used for the cDNA first- and second-strand synthesis. The cDNA was amplified with T7 polymerase and simultaneously labeled with biotin-UTP. In each case 20 μg of this biotinylated […] were employed for the hybridization of the maize genome array from Affymetrix. This DNA microarray contains DNA sequences whose totality represents 13339 genes. Thereafter, the DNA microarrays were washed in the Affymetrix Fluidics Station, stained with streptavidin/phycoerythrin (Molecular Probes, P/N S-866) and scanned with the appropriate Agilent Laser Scanner (Agilent Gene Array Scanner). The fluorescence data obtained were analyzed using Affymetrix's Microarray Suite 5 software. After the quality assurance had been performed, all DNA chip analyses were stored in a database. To determine relevant expression values (induction factors, repression factors), the absolute expression values of the genes from the respective stress experiments were compared with the values of the respective control experiments (i.e. without abiotic stress and solvent-dressing only), based on the scoring function predetermined by the Affymetrix software. The resulting 4 expression values per gene were averaged by calculating the median value. These median values are shown in the results tables as induction factors. Similarity comparisons of expression profiles of various experiments and cluster analyses were carried out using the “genedata expressionist” software from Genedata (Genedata, Maulbeerstr. 46, CH-4016 Basel, Switzerland).
# (§6) The induction patterns derived from table 5 and which are shown directly by the resulting expression values show characteristic inductions by the action of the compound 4-cyclopropylaminocarbonyl-N-(2-methoxybenzoyl)benzenesulfonamide (=VIII-3), the effect on the putative N-carbamyl-L-amino acid amidohydrolase [Zm.11840.1.A1_at] and on the putative serine carboxypeptidase [Zm18994.2.A1-at] being most pronounced. • b) Under dried stress conditions, i.e. the tested maize plants (dressed with 2 mg a.i. 4-cyclopropylaminocarbonyl-N-(2-methoxybenzoyl)benzenesulfonamide/g seeds) were exposed to a temperature of 24° C. for 7 hours 7 days after germination.
# (§7) • Condition A: drought stress (7 days, 24° C.) • Condition B: Seeds dressed with 4-cyclopropylaminocarbonyl-N-(2-methoxybenzoyl)benzenesulfonamide (VIII-3)/NO drought stress • Condition C: Seeds dressed with 4-cyclopropylaminocarbonyl-N-(2-methoxybenzoyl)benzenesulfonamide (VIII-3)+drought stress (7 days, 24° C.).
# [2] = system: Zm.818.2.A1_at expressed protein; experiment: as above; details: vs unstressed solvent-dressed control
# Procedure: as §1, §2, §3, §4, §5, §6, §7
# [3] = system: Zm.13229.1.S1_at NBS-LRR type disease resistance protein O2 (fragment); experiment: as above; details: vs unstressed solvent-dressed control
# Procedure: as §1, §2, §3, §4, §5, §6, §7
# [4] = system: Zm.3633.4.A1_at wound induced protein (fragment); experiment: as above; details: vs unstressed solvent-dressed control
# Procedure: as §1, §2, §3, §4, §5, §6, §7
# [5] = system: Zm.485.1.A1_at non-symbiotic hemoglobin (HBT) (ZEAMP GLB1); experiment: as above; details: vs unstressed solvent-dressed control
# Procedure: as §1, §2, §3, §4, §5, §6, §7
# [6] = system: Zm.10097.1.A1_at expressed protein; experiment: as above; details: vs unstressed solvent-dressed control
# Procedure: as §1, §2, §3, §4, §5, §6, §7
# [7] = system: Zm.12035.1.A1_at similar to AT3G10120; experiment: as above; details: vs unstressed solvent-dressed control
# Procedure: as §1, §2, §3, §4, §5, §6, §7
# [8] = system: Zm.18682.1.A1_at unknown protein; experiment: as above; details: vs unstressed solvent-dressed control
# Procedure: as §1, §2, §3, §4, §5, §6, §7
# [9] = system: Zm.818.1.A1_at universal stress protein; experiment: as above; details: vs unstressed solvent-dressed control
# Procedure: as §1, §2, §3, §4, §5, §6, §7
# maize plants = experiment: Chill-stress experiment (greenhouse) with maize plants, pre-emergence treatment; details: for Number of damaged plants (chloroses): chill stress 6 h at −2° C, 20 plants per group
# Text: Maize seeds cv. Lorenzo were sown into 10-cm-pots into compost at a rate of 10 seeds per pot. All experimental groups consisted of in each case 4 pots. The sown seeds of test groups 1 and 2 were sprayed pre-emergence with 50 and 100 [g a.i./ha], respectively, of the compound 4-cyclopropylaminocarbonyl-N-(2-methoxybenzoyl)benzenesulfonamide (=VIII-3). The seeds of the control group remained untreated. The plants were raised under controlled conditions in a controlled-environment chamber [white light (long day: 16 h light, 8 h dark), 22° C. day-time temperature, 14° C. night-time temperature, 60% atmospheric humidity].
# After germination, when the plants had attained a length of approx. 1 cm, 2 pots from each group were incubated for 6 h in a different controlled-environment chamber under chill-stress conditions at −2° C. Thereafter, these plants were returned to the others in the first controlled-environment chamber.
# To evaluate the experiment quantitatively, the plants with chloroses of the leaf tips were counted. The total number of the plants per test group and cold stress treatment was 20, provided over 2 pots in each case.
# [10] = seeds dressed with VIII-3 (2 mg a.i./g seeds), NO drought stress
# [11] = seeds dressed with VIII-3 + drought stress (7 days, 24° C.)
compound,measurement,setting,value
"COc1ccccc1C(=O)NS(=O)(=O)c1ccc(C(=O)NC2CC2)cc1 [VIII-3, 4-cyclopropylaminocarbonyl-N-(2-methoxybenzoyl)benzenesulfonamide]","induction factor Zm.18273.1.S1_at, Condition B",[1]; [10],0.95
same,"induction factor Zm.18273.1.S1_at, Condition C",[1]; [11],2.91
same,"induction factor Zm.818.2.A1_at, Condition B",[2]; [10],1.10
same,"induction factor Zm.818.2.A1_at, Condition C",[2]; [11],5.40
same,"induction factor Zm.13229.1.S1_at, Condition B",[3]; [10],1.02
same,"induction factor Zm.13229.1.S1_at, Condition C",[3]; [11],3.39
same,"induction factor Zm.3633.4.A1_at, Condition B",[4]; [10],0.74
same,"induction factor Zm.3633.4.A1_at, Condition C",[4]; [11],3.03
same,"induction factor Zm.485.1.A1_at, Condition B",[5]; [10],1.00
same,"induction factor Zm.485.1.A1_at, Condition C",[5]; [11],5.49
same,"induction factor Zm.10097.1.A1_at, Condition B",[6]; [10],1.27
same,"induction factor Zm.10097.1.A1_at, Condition C",[6]; [11],3.29
same,"induction factor Zm.12035.1.A1_at, Condition B",[7]; [10],0.90
same,"induction factor Zm.12035.1.A1_at, Condition C",[7]; [11],3.66
same,"induction factor Zm.18682.1.A1_at, Condition B",[8]; [10],1.12
same,"induction factor Zm.18682.1.A1_at, Condition C",[8]; [11],4.19
same,"induction factor Zm.818.1.A1_at, Condition B",[9]; [10],1.12
same,"induction factor Zm.818.1.A1_at, Condition C",[9]; [11],8.47
same,Number of damaged plants (chloroses),maize plants; 50 g a.i./ha pre-emergence,1
same,Number of damaged plants (chloroses),maize plants; 100 g a.i./ha pre-emergence,0
same,occurrence of chill stress damage symptoms,maize plants; at the higher dosage rate,completely prevents
same,chloroses at the leaf tips after chill stress,"maize plants; plants treated with the active substance, 24 hours after chill stress",either absent or only very weakly pronounced
same,plants showing damage symptoms,maize plants; test groups kept exclusively under standard conditions without chill stress,None
same,damage symptoms which are the result of chill stress,maize plants; treatment with the active substance (lower dosage rate),markedly reduce
